Like-named read-outs stand apart in the source and are kept apart here. Ends that are not written are not given here.
Assays:
Test in all cases: FP displacement (competition) of FITC-15 AA CRIPT by library peptide, IC50 and Ki
PSG (PSD-95) = conditions: for IC50: read-out: IC50 (µM), PSG; for Ki: read-out: Ki (µM), PSG
PSG G335A (PSD-95) = conditions: for IC50: read-out: IC50 (µM), PSG G335A; for Ki: read-out: Ki (µM), PSG G335A
PSG G322A (PSD-95) = conditions: for IC50: read-out: IC50 (µM), PSG G322A; for Ki: read-out: Ki (µM), PSG G322A
PSG G322A G335A (PSD-95) = conditions: for IC50: read-out: IC50 (µM), PSG G322A G335A; for Ki: read-out: Ki (µM), PSG G322A G335A
[1] = FP displacement of FITC-15 AA CRIPT probe by acetylated PSD library peptide
[2] = FP displacement of FITC-15 AA CRIPT probe by acetylated PSD library peptide (P-13 to P0 plus extra N-terminal Y)
[3] = FP displacement of FITC-15 AA CRIPT probe by PSD library peptide, protein PSG (wild type)
[4] = FP displacement of FITC-15 AA CRIPT probe by PSD library peptide, protein PSG G335A
[5] = FP displacement of FITC-15 AA CRIPT probe by PSD library peptide, protein PSG G322A
[6] = FP displacement of FITC-15 AA CRIPT probe by PSD library peptide, protein PSG G322A G335A

## CC[C@H](C)[C@H](NC(=O)[C@@H](NC(=O)[C@H](CCCCN)NC(=O)[C@H](CCCCN)NC(=O)CNC(=O)[C@H](CC(C)C)NC(=O)[C@H](CCCCN)NC(=O)[C@H](C)NC(=O)[C@H](CCSC)NC(=O)[C@H](CCCNC(=N)N)NC(=O)[C@H](CCSC)NC(=O)[C@H](CCCNC(=N)N)NC(=O)[C@H](CC(C)C)NC(=O)[C@H](C)NC(=O)[C@H](Cc1ccc(O)cc1)NC(C)=O)C(C)C)C(=O)O [PALMD]
PSG (PSD-95); [1]
  IC50: 1160 µM
  Ki: 493 µM
PSG G335A (PSD-95); [1]
  IC50: 1600 µM
  Ki: 569 µM
PSG G322A (PSD-95); [1]
  IC50: 1450 µM
  Ki: 629 µM
PSG G322A G335A (PSD-95); [2]
  IC50: 1630 µM
PSG G322A G335A (PSD-95); [1]
  Ki: 564 µM

## CC[C@H](C)[C@H](NC(=O)[C@H](CC(C)C)NC(=O)[C@H](C)NC(=O)[C@@H](NC(=O)[C@H](C)NC(=O)[C@H](Cc1ccc(O)cc1)NC(C)=O)C(C)C)C(=O)N[C@@H](C)C(=O)N[C@@H](Cc1ccc(O)cc1)C(=O)N[C@@H](CC(C)C)C(=O)N[C@@H](CO)C(=O)N[C@@H](CCCCN)C(=O)N[C@@H](CC(N)=O)C(=O)N[C@@H](CC(N)=O)C(=O)N[C@@H](Cc1c[nH]cn1)C(=O)N[C@@H](CC(C)C)C(=O)O [SYNG1]
PSG (PSD-95); [1]
  IC50: 1440 µM
  Ki: 613 µM
PSG G335A (PSD-95); [1]
  IC50: 663 µM
  Ki: 236 µM
PSG G322A G335A (PSD-95); [2]
  IC50: 733 µM
PSG G322A G335A (PSD-95); [1]
  Ki: 254 µM

## CC(=O)N[C@@H](Cc1ccc(O)cc1)C(=O)N[C@@H](CC(C)C)C(=O)N1CCC[C@H]1C(=O)N[C@@H](CC(C)C)C(=O)N[C@@H](CC(=O)O)C(=O)N[C@H](C(=O)N[C@@H](CCC(N)=O)C(=O)N[C@@H](CCC(=O)O)C(=O)NCC(=O)N[C@@H](CC(=O)O)C(=O)N[C@@H](Cc1ccccc1)C(=O)N[C@@H](CCC(N)=O)C(=O)N[C@H](C(=O)N[C@@H](CCC(=O)O)C(=O)N[C@H](C(=O)O)C(C)C)[C@@H](C)O)C(C)C [AGRB3]
PSG (PSD-95); [1]
  IC50: 1080 µM
  Ki: 459 µM
PSG G335A (PSD-95); [1]
  IC50: 1130 µM
  Ki: 402 µM
PSG G322A (PSD-95); [1]
  IC50: 342 µM
  Ki: 148 µM
PSG G322A G335A (PSD-95); [2]
  IC50: 534 µM
PSG G322A G335A (PSD-95); [1]
  Ki: 185 µM

## CC(=O)N[C@@H](Cc1ccc(O)cc1)C(=O)N1CCC[C@H]1C(=O)N[C@@H](CCC(N)=O)C(=O)N[C@@H](Cc1c[nH]cn1)C(=O)N[C@@H](CC(C)C)C(=O)N[C@@H](CCCNC(=N)N)C(=O)N[C@H](C(=O)N[C@@H](C)C(=O)N[C@@H](CO)C(=O)N[C@@H](CCCCN)C(=O)N[C@@H](CC(N)=O)C(=O)N[C@@H](CCC(=O)O)C(=O)N[C@H](C(=O)N[C@H](C(=O)N[C@H](C(=O)O)C(C)C)[C@@H](C)O)C(C)C)[C@@H](C)O [SHSA7]
PSG (PSD-95); [3]
  IC50: 1120 µM
  Ki: 475 µM
PSG G335A (PSD-95); [4]
  IC50: 980 µM
  Ki: 349 µM
PSG G322A (PSD-95); [5]
  IC50: 695 µM
  Ki: 301 µM
PSG G322A G335A (PSD-95); [6]
  IC50: 1680 µM
  Ki: 580 µM

## Ac-YSRQHSKLLDFDDVL [NSMF]
PSG (PSD-95); [1]
  IC50: 1390 µM
  Ki: 592 µM

## CC[C@H](C)[C@H](NC(=O)[C@H](CC(N)=O)NC(=O)CNC(=O)CNC(=O)[C@H](CO)NC(=O)[C@H](Cc1ccc(O)cc1)NC(=O)[C@H](CCC(=O)O)NC(=O)[C@@H]1CCCN1C(=O)[C@H](Cc1ccc(O)cc1)NC(C)=O)C(=O)N[C@H](C(=O)N[C@@H](CCCNC(=N)N)C(=O)N[C@H](C(=O)N[C@@H](CO)C(=O)N[C@@H](C)C(=O)N[C@@H](CC(C)C)C(=O)O)C(C)C)C(C)C [KCND2]
PSG (PSD-95); [3]
  IC50: 1500 µM
  Ki: 793 µM
PSG G335A (PSD-95); [4]
  IC50: 237 µM
  Ki: 84 µM
PSG G322A (PSD-95); [5]
  IC50: 564 µM
  Ki: 244 µM
PSG G322A G335A (PSD-95); [6]
  IC50: 343 µM
  Ki: 119 µM
